Patent US20250340570A1, “COMPOSITIONS USEFUL FOR MODULATING SPLICING” (Skyhawk Therapeutics, Inc., priority 2022, published 2025)

What was measured:
[1] = test system: ATXN3 transcripts containing exon 4; test: ATXN3 quantitative splicing assay (qPCR, E4E5 transcripts containing exon 4); format: cell-based; conditions: Human neuroblastoma SK-N-MC cells, 24 h treatment, qPCR primers/probe E4E5
Protocol: Human neuroblastoma SK-N-MC cells were plated in 384-well plates at 20,000 cells/well. Twenty-four hours after plating, cells were treated with compounds for 24 h at appropriate concentrations ranging from 30 μM to 0.6 nM (0.3% DMSO). Treated cells were lysed in 15 μL of lysis buffer, and cDNA was synthesized using the Fast Advanced Cells-to-Ct kit. Two μL of each cDNA was used in qPCR reactions to confirm the exon 4 skipped transcripts of ATXN3. A second set of primers/probe E4E5 was used to detect the transcripts containing exon 4. The third set of primers/probe E8E9 was used to detect total gene level of ATXN3. The qPCR reactions were prepared in 384-well plates in 10.L volume, using TaqMan™ Fast Advanced Master Mix with primers and probes shown in the table below. Reactions were run in a Quant Studio 6 qPCR instrument with default settings.
The primers and probes are listed below in Table 5.

total ATXN3 protein = test: ATXN3 total protein assay (Mesoscale Discovery); format: cell-based; conditions: Human neuroblastoma SK-N-MC cells, 48 hours incubation, MSD assay
Protocol: Human neuroblastoma SK-N-MC cells were seeded at 10,000 cells/well in 384 well plates one day prior to compound treatment. The concentrations of compounds were tested at appropriate doses ranging from 30 µM to 0.6 nM. After incubation for 48 hours, the cells were lysed with 25.L of lysis buffer containing protease inhibitors, and total ATXN3 protein levels were assessed by Mesoscale Discovery (MSD) assay developed with one pair of and-ATXN3 antibodies. The capture and detect antibodies were raised in mouse and rabbit respectively. Anti-rabbit MSD-ST antibody was used for secondary antibody.
ATXN3 recombinant protein was used for standards. The readouts were captured with 35.L of MSD read buffer and multi-array 384-well high binding plates.

SMILES | IC50 [1] [µM] | IC50 (total ATXN3 protein) [µM]
C[C@H](N)Cc1sc2c(NCc3ccco3)snc2c1C1CC1 [Compound 31, 7-[(S)-2-aminopropyl]-8-cyclopropyl-4-(furfurylamino)-3,6-dithia-2-azabicyclo[3.3.0]octa-1,4,7-triene] | 5 to 10 | 5 to 10
Cc1csc2c(NCc3ccncc3)snc12 [Compound 1, [(4-pyridyl)methyl](8-methyl-3,6-dithia-2-azabicyclo[3.3.0]octa-1,4,7-trien-4-yl)amine] | 10 to 40 | 10 to 40
Cc1c(C[C@@H](N)CC(F)F)sc2c(NCc3cccs3)snc12 [Compound 68, 7-[(S)-2-amino-4,4-difluorobutyl]-8-methyl-4-thenylamino-3,6-dithia-2-azabicyclo[3.3.0]octa-1,4,7-triene] | 10 to 40 | 10 to 40
C[C@H](N)Cc1sc2c(NCc3cccs3)snc2c1-c1ccccc1 [Compound 128, 7-[(S)-2-aminopropyl]-8-phenyl-4-thenylamino-3,6-dithia-2-azabicyclo[3.3.0]octa-1,4,7-triene] | 10 to 40 | 10 to 40
C[C@H](N)C(F)(F)c1sc2c(NCc3cccs3)snc2c1Br [Compound 99, 5-[(2S)-2-amino-1,1-difluoropropyl]-6-bromo-N-(thiophen-2-ylmethyl)thieno[3,2-c][1,2]thiazol-3-amine] | 0.501 to 5 | 0.501 to 5
C[C@H](N)Cc1sc2c(NCc3ccco3)snc2c1Cl [Compound 23, 7-[(S)-2-aminopropyl]-8-chloro-4-(furfurylamino)-3,6-dithia-2-azabicyclo[3.3.0]octa-1,4,7-triene] | 0.101 to 0.5 | 0.101 to 0.5
FC(F)(F)c1csc2c(NCc3cccs3)snc12 [Compound 67, (thenyl){8-(trifluoromethyl)-3,6-dithia-2-azabicyclo[3.3.0]octa-1,4,7-trien-4-yl}amine] | 10 to 40 | 10 to 40
C[C@H](N)Cc1sc2c(NCc3cccs3)snc2c1F [Compound 30, 7-[(S)-2-aminopropyl]-8-fluoro-4-thenylamino-3,6-dithia-2-azabicyclo[3.3.0]octa-1,4,7-triene] | 5 to 10 | 10 to 40
Cc1c(CCCN)sc2c(NCc3cccs3)snc12 [Compound 45, 7-(3-aminopropyl)-8-methyl-4-thenylamino-3,6-dithia-2-azabicyclo[3.3.0]octa-1,4,7-triene] | 10 to 40 | 10 to 40
N[C@@H](COC1CC1)Cc1sc2c(NCc3cccs3)snc2c1Br [Compound 100, 7-[(R)-2-amino-3-cyclopropoxypropyl]-8-bromo-4-thenylamino-3,6-dithia-2-azabicyclo[3.3.0]octa-1,4,7-triene] | 0.501 to 5 | 0.501 to 5
C[C@H](N)Cc1sc2c(NCc3cccs3)snc2c1C#N [Compound 19, 7-[(S)-2-aminopropyl]-4-thenylamino-3,6-dithia-2-azabicyclo[3.3.0]octa-1,4,7-triene-8-carbonitrile] | 0.501 to 5 | 0.501 to 5
COC[C@H](N)Cc1sc2c(NCc3cccs3)snc2c1Cl [Compound 44, 7-[(R)-2-amino-3-methoxypropyl]-8-chloro-4-thenylamino-3,6-dithia-2-azabicyclo[3.3.0]octa-1,4,7-triene] | 5 to 10 | 0.501 to 5
C[C@H](N)Cc1sc2c(NCc3nccs3)snc2c1Cl [Compound 76, 7-[(S)-2-aminopropyl]-8-chloro-4-{[(1,3-thiazol-2-yl)methyl]amino}-3,6-dithia-2-azabicyclo[3.3.0]octa-1,4,7-triene] | 0.101 to 0.5 | 0.101 to 0.5
Cc1c(C[C@@H](N)c2ccccc2)sc2c(NCc3cccs3)snc12 [Compound 71, 7-[(R)-2-amino-2-phenylethyl]-8-methyl-4-thenylamino-3,6-dithia-2-azabicyclo[3.3.0]octa-1,4,7-triene] | 10 to 40 | 5 to 10
Cc1c(C[C@@H](N)CC2CC2)sc2c(NCc3ccco3)snc12 [Compound 9, 7-[(S)-2-amino-3-cyclopropylpropyl]-4-(furfurylamino)-8-methyl-3,6-dithia-2-azabicyclo[3.3.0]octa-1,4,7-triene] | 0.501 to 5 | 0.501 to 5
N[C@@H](CO)Cc1sc2c(NCc3ccco3)snc2c1Cl [Compound 46, (R)-2-amino-3-{8-chloro-4-(furfurylamino)-3,6-dithia-2-azabicyclo[3.3.0]octa-1,4,7-trien-7-yl}-1-propanol] | 0.101 to 0.5 | 0.101 to 0.5

SMILES | IC50 [1] [µM] | IC50 (total ATXN3 protein) [µM]
C[C@H](F)[C@H](N)Cc1sc2c(NCc3sccc3F)snc2c1Br [Compound 93, 7-[(2R,3S)-2-amino-3-fluorobutyl]-8-bromo-4-{[(3-fluoro-2-thienyl)methyl]amino}-3,6-dithia-2-azabicyclo[3.3.0]octa-1,4,7-triene] | 0.501 to 5 | 0.501 to 5
CC(=O)N[C@@H](C)Cc1sc2c(NCc3cccs3)snc2c1C [Compound 79, N-[(2S)-1-{6-methyl-3-[(thiophen-2-ylmethyl)amino]thieno[3,2-c][1,2]thiazol-5-yl}propan-2-yl]acetamide] | 10 to 40 | 10 to 40
CC#C[C@H](N)Cc1sc2c(NCc3cccs3)snc2c1C [Compound 55, 7-[(R)-2-amino-3-pentynyl]-8-methyl-4-thenylamino-3,6-dithia-2-azabicyclo[3.3.0]octa-1,4,7-triene] | 10 to 40 | 10 to 40
N[C@H](Cc1sc2c(NCc3cccs3)snc2c1Br)CC(F)F [Compound 70, 7-[(S)-2-amino-4,4-difluorobutyl]-8-bromo-4-thenylamino-3,6-dithia-2-azabicyclo[3.3.0]octa-1,4,7-triene] | 10 to 40 | 10 to 40
COc1c(C[C@H](C)N)sc2c(NCc3ccco3)snc12 [Compound 26, 5-[(2S)-2-aminopropyl]-N-(furan-2-ylmethyl)-6-methoxythieno[3,2-c][1,2]thiazol-3-amine] | 5 to 10 | 5 to 10
N[C@H](Cc1sc2c(NCc3ccco3)snc2c1Br)C(F)F [Compound 111, 7-[(R)-2-amino-3,3-difluoropropyl]-8-bromo-4-(furfurylamino)-3,6-dithia-2-azabicyclo[3.3.0]octa-1,4,7-triene] | 0.501 to 5 | 0.501 to 5
CSc1csc2c(NCc3ccco3)snc12 [Compound 90, (furfuryl){8-(methylthio)-3,6-dithia-2-azabicyclo[3.3.0]octa-1,4,7-trien-4-yl}amine] | 10 to 40 | 10 to 40
CSc1c(C[C@H](C)N)sc2c(NCc3ccco3)snc12 [Compound 85, 7-[(S)-2-aminopropyl]-4-(furfurylamino)-8-(methylthio)-3,6-dithia-2-azabicyclo[3.3.0]octa-1,4,7-triene] | 5 to 10 | 10 to 40
C[C@H](N)Cc1sc2c(NCc3ccco3)snc2c1C(F)(F)F [Compound 81, 7-[(S)-2-aminopropyl]-4-(furfurylamino)-8-(trifluoromethyl)-3,6-dithia-2-azabicyclo[3.3.0]octa-1,4,7-triene] | 0.501 to 5 | 0.501 to 5
N[C@@H](CF)Cc1sc2c(NCc3ccco3)snc2c1Cl [Compound 48, 7-[(R)-2-amino-3-fluoropropyl]-8-chloro-4-(furfurylamino)-3,6-dithia-2-azabicyclo[3.3.0]octa-1,4,7-triene] | 0.101 to 0.5 | 0.101 to 0.5
C[C@@H](F)[C@H](N)Cc1sc2c(NCc3nccs3)snc2c1Br [Compound 106, 7-[(2R,3R)-2-amino-3-fluorobutyl]-8-bromo-4-{[(1,3-thiazol-2-yl)methyl]amino}-3,6-dithia-2-azabicyclo[3.3.0]octa-1,4,7-triene] | 0.501 to 5 | 0.501 to 5
C[C@@H](F)[C@H](N)Cc1sc2c(NCc3sccc3F)snc2c1Cl [Compound 94, 7-[(2R,3R)-2-amino-3-fluorobutyl]-8-chloro-4-{[(3-fluoro-2-thienyl)methyl]amino}-3,6-dithia-2-azabicyclo[3.3.0]octa-1,4,7-triene] | 5 to 10 | 5 to 10
N[C@H](Cc1sc2c(NCc3cccs3)snc2c1Cl)C1CC(F)(F)C1 [Compound 53, 7-[(R)-2-amino-2-(3,3-difluorocyclobutyl)eth-yl]-8-chloro-4-thenylamino-3,6-dithia-2-azabicyclo[3.3.0]octa-1,4,7-triene] | 0.501 to 5 | 0.501 to 5
C[C@H](F)[C@H](N)Cc1sc2c(NCc3sccc3F)snc2c1Cl [Compound 95, 7-[(2R,3S)-2-amino-3-fluorobutyl]-8-chloro-4-{[(3-fluoro-2-thienyl)methyl]amino}-3,6-dithia-2-azabicyclo[3.3.0]octa-1,4,7-triene] | 0.501 to 5 | 0.501 to 5
C[C@H](N)Cc1sc2c(NCc3ccco3)snc2c1Br [Compound 24, 7-[(S)-2-aminopropyl]-8-bromo-4-(furfurylamino)-3,6-dithia-2-azabicyclo[3.3.0]octa-1,4,7-triene] | 0.101 to 0.5 | 0.101 to 0.5
